This series deals with Human squamous carcinoma cell line SCC12F cells. The series is described as follows: Cell growth / cell yield of SCC12F cells (Coulter counter). In kind it is cell-based. The settings on record: for reduction of cell number: after 2 days, FIG. 14. The method, then:
Human squamous carcinoma cell line SCC12F cells were maintained in primary keratinocyte medium (300 ml DME, 100 ml F-12 nutrient supplement, 50 ml 10× adenine, 50 ml fetal bovine serum, 5 ml penicillin/streptomycin stock, and 0.5 ml of 10 μg/ml epidermal growth factor and hydrocortisone to final concentration of 1.4 μg/ml) and dosed with either water (diluent), 100 μM pTpT (T2, Midland Certified Reagent Company, Midland, Tex.) or 100 μM pdApdA (A2). Cells were harvested before dosing (day 0), and 1, 3, 4, and 5 days after dosage, and were counted by Coulter™ counter. After harvesting, the cells were processed for total RNA isolation and were analyzed by Northern blot. Addition of a control deoxyadenine dinucleotide (pdApdA), a compound very similar to pTpT but not readily dimerized by UV irradiation, and therefore rarely excised during the course of UV-induced DNA repair, has no effect.
In a second experiment, SCC12F cells were cultured as described above. Two or three days after seeding, the preconfluent cultures were given fresh medium supplemented with either 100 μM T2 or diluent as a control. Cells were collected daily by trypsinization and counted by Coulter™ counter. The cell yield in cultures treated with T2 was reduced by […] compared to that of paired control cultures after five days (FIG. 2). This corresponds to 2.3 population doublings in this time for control cells, compared with 1 doubling for T2-treated cells.
pTpT was previously found to inhibit cell cycle progression, at least in part through activation of p53 and subsequent upregulation of the cyclin dependent kinase inhibitor p21. Cultures of the human keratinocyte line SCC12F were treated with pTpT, SEQ ID NO: 1, SEQ ID NO: 6 or diluent alone as a negative control, collected and counted 48 hours later and processed for northern blot analysis of p21 mRNA expression. […] Thus, the sequences of the present invention activate p53 and inhibit cell proliferation similar to the effect of pTpT.
Exposure of keratinocytes to UVB irradiation affects the expression of genes involved in cell cycle arrest, DNA repair and cytokine production. Single-stranded oligonucleotides sharing sequence homology with the telomere 3′ overhang, when introduced into cells, mimic these UV effects. To identify other genes that may be similarly modulated, cells of keratinocyte origin (SCC12F; a human epidermal squamous cell carcinoma line provided by Dr. James Rheinwald of Harvard University) were exposed to solar simulated irradiation (SSR) (20 mJ/cm^2, measured at 285±5 nm), to an 11-base oligonucleotide (pGTTAGGGTTAG; SEQ ID NO:5) homologous to the telomere overhang (T-oligo), or to a complementary sequence as control [pCTAACCCTAAC; (SEQ ID NO:9) control oligonucleotide]. […] These are mitochondrial-transcribed genes whose encoded proteins participate in cellular respiration.

Oligonucleotides are written 5' to 3', each unit as a sugar letter and its base; * is a phosphorothioate linkage, no mark a phosphodiester; rarer units and linkages stand in square brackets, end groups in braces. Plain capitals give the bases only. d = 2'-deoxy (DNA); {P} = phosphate

As to thymidine dinucleotide [pTpT], the “reduction of cell number” value turned out to be 40%. In addition, for the setting “100 μM, after five days”, the “cell yield reduced compared to paired control cultures” value came to 75%. For the same substance, the cell growth rate entry (100 μM, days 1, 3, 4, 5 after dosage) is “marked decreases in cell growth rate”. The same substance returned a population doublings (100 μM, five days (control 2.3)) of 1.
Turning to “pGAGTATGAG (DNA, 5' {P}, backbone not given here) [SEQ ID NO: 1]”, the “reduction of cell number” value is listed as “approximately 50%”.
Consider “pGTTAGGGTTAG (DNA {P}-dGdTdTdAdGdGdGdTdTdAdG) [SEQ ID NO: 5]”, for which, where the note is “Example 27”, the cellular proliferation entry is recorded as “substantially inhibited cellular proliferation”.

The record behind these values is patent US7033829B2, “Method to inhibit cell growth using oligonucleotides” (Trustees of Boston University, priority 2000, dated 2006).
